# Reference: patent US4711885A, “N-(N'-phenylpiperazine)-alkyl triazole compounds having anxiolytic and analgesic properties” (Adir et Compagnie, priority 1985, dated 1987)
# Experiments:
# Assay type in all cases: in vivo
# mice [1] = assay: four plates test according to Aron et al. (anxiolytic activity, number of shocks received); details: for % number of shocks received: mice, N = 10; for anxiolytic activity in the 4 plates test: in words
# Text: (§1) The anxiolytic activity was studied, for its part, by means of the four plates test according to Aron C., Simon P., Larousse C. and Boissier J. R., Neuropharmacology, 10, 459-469, (1971), the conflict test according to Vogel J. R., Beer B., Clody D. E., Physchopharmacol.
# mice [2] = assay: tail-flick test according to D'Amour and Smith (analgesic activity, reaction time); details: for ED50: Mus musculus, ip, mice
# Text: (§2) The analgesic activity of the compounds of the present invention was studied by means of the tail-flick test according to D'Amour F. E. and Smith D. L., Journal of pharmacology and experimental therapeutics, 72, 74-79 (1941), the hot plate test according to Woolfe G. and MacDonald A. D., Journal of pharmacology and experimental therapeutics, 80, 300-307 (1944) and the phenylbenzoquinone test according to Siegmund E., Cadmus R. and Lu G, Proc. Soc. Exptle. Biol. Med. 95, 729-731 (1957).
# By way of example, the following table lists the results of the analgesic effects observed in mice for several representative products of the invention:
# Note: The mean effective dose (ED50) was calculated:
# in the tailflick test from the percentage variations in the reaction time
# (in seconds) by comparison with the control batch.
# mice [3] = assay: hot plate test according to Woolfe and MacDonald (analgesic activity, licking time); details: Mus musculus, ip
# Text: as §2, with “[…].” for “Exptle.”
# mice [4] = assay: phenylbenzoquinone test according to Siegmund (analgesic activity, contractions of the abdomen); details: for ED50: Mus musculus, po, mice; for analgesic activity in the Siegmund test: in words
# Text: as §2, with “[…].” for “Exptle.”
# rats = assay: Mac Millan punishment test, punishment operating conditioning (anxiolytic activity, number of punished responses); details: for percentage variation in the number of punished responses: rats, N ≥ 9; for anxiolytic activity in the conflict test according to MacMillan: in words
# Text: as §1, with “Physchopharmacol. 21, 1-7, (1971) and the punishment test according to Mac Millan D. E., J. Exp. Anal. Behav, 19, 133-145 (1973).” for “Physchopharmacol.”
# PUNISHMENT OPERATING CONDITIONING (RATS)
# PERCENTAGE VARIATION IN THE NUMBER
# OF PUNISHED RESPONSES (N ≥ 9)
# S = Significant modification
SMILES,% number of shocks received (mice [1]; 2.5 mg/kg i.p.),% number of shocks received (mice [1]; 5 mg/kg i.p.),% number of shocks received (mice [1]; 10 mg/kg i.p.),% number of shocks received (mice [1]; 25 mg/kg i.p.),anxiolytic activity in the 4 plates test (mice [1]),ED50 (mice [2]) [mg/kg],ED50 (mice [3]) [mg/kg],ED50 (mice [4]) [mg/kg],analgesic activity in the Siegmund test (mice [4]),"activity in the tail-flick test (mice [2]; 50 mg/kg i.p., in words)",percentage variation in the number of punished responses (rats; 2.5 mg/kg i.p.),percentage variation in the number of punished responses (rats; 5 mg/kg i.p.),percentage variation in the number of punished responses (rats; 10 mg/kg i.p.),percentage variation in the number of punished responses (rats; 20 mg/kg i.p.) [%],anxiolytic activity in the conflict test according to MacMillan (rats)
FC(F)(F)c1cccc(N2CCN(CCc3nnc4n3CC3CCCC43)CC2)c1 (centres unmarked) [Example 17b],+15%,+34%,+53%,+27%,very significant anxiolytic activity,–,–,–,–,–,–,–,–,–,–
"Clc1cccc(N2CCN(CCc3nnc4n3CC3CCCCC43)CC2)c1 (stereo not drawn) [Example 2, 9-{β-N'-[N-(metachlorophenyl)piperazine]ethyl}-[7H]-2b,3,4,5,6,6a-hexahydrotriazolo[3,4-a]cyclohexa(c)pyrrole]",–,–,–,–,–,> 50,> 50,8.7,very significant analgesic activiy,–,–,–,–,–,–
Clc1cccc(N2CCN(CCCc3nnc4n3[C@H]3CCCC[C@H]3CC4)CC2)c1 (relative stereo) [Example 42],–,–,–,–,–,> 50,–,11.4,–,–,–,–,–,–,–
FC(F)(F)c1cccc(N2CCN(CCc3nnc4n3CC3CCCCC43)CC2)c1 (centres unmarked) [Example 36],-12%,-4%,-4%,+39%,very significant anxiolytic activity,> 50,25 to 50,4.3,very significant analgesic activiy,–,–,–,–,–,–
Clc1cccc(N2CCN(CCc3nnc4n3[C@H]3CCCC[C@@H]3CC4)CC2)c1 (relative stereo) [Example 12],+38%,+15%,+20%,+2%,very significant anxiolytic activity,30.7,25.3,25.7,–,active,-33.5%,-24%,-51.3%,-75,–
FC(F)(F)c1cccc(N2CCN(CCc3nnc4n3C[C@H]3CCCC[C@H]3C4)CC2)c1 (relative stereo) [Example 16],-12%,+2%,+32%,+5%,very significant anxiolytic activity,> 50,24.3,17,–,–,+5.4%,+42.2%,+125.9%,-60.7,very significant anxiolytic activity
FC(F)(F)c1cccc(N2CCN(CCc3nnc4n3CC3CCCC43)CC2)c1 (centres unmarked) [Example 17a],+18%,+26%,+35%,+61%,very significant anxiolytic activity,> 50,21.3,5.82,–,–,+47.8%,+33.6%,+42.6%,-70.3,very significant anxiolytic activity
"FC(F)(F)c1cccc(N2CCN(CCCc3nnc4n3C[C@H]3CCCC[C@H]3C4)CC2)c1 (relative stereo) [Example 3, Cis-10{γ-N-[N'(metatrifluoromethylphenyl)piperazine]n-propyl}-3,3a,4,5,6,7,7a,8-octahydrotriazolo[4,3-b]isoquinoline]",+38%,+44%,+48%,18%,very significant anxiolytic activity,> 50,19.8,16,–,–,–,–,–,–,–
Clc1cccc(N2CCN(CCCc3nnc4n3C[C@H]3CCCC[C@H]3C4)CC2)c1 (relative stereo) [Example 40],–,–,–,–,–,> 50,53.9,7.5,very significant analgesic activiy,–,–,–,–,–,–
